# Ends that are not written are not given here.
# Test: Observation of dentinal tubule permeability by confocal microscopy
# Assay type: in vitro ADME
# Details: rhodamine-attached KH001 in ABU, applied about 30 seconds to coronal surface of extracted human tooth
# Excerpt: The composition for dentin adhesion prepared according to Example 2-1-1 of the present invention was applied to extracted human teeth to observe dentinal tubule permeability. The extracted human teeth were impacted human third molars from patients aged 18 to 22, provided by the Seoul National University Dental Hospital. The experimental protocol was approved by the Institutional Review Board (IRB; IRB Number: S-D20140007), and prior consent was obtained from all patients.
# The crown of the extracted human tooth was transversely cut using a diamond saw to expose the dentinal tubule, and then the exposed human tooth was treated. A composition for dentin adhesion prepared according to Example 2-1-1 containing the KH001 peptide (SEQ ID NO: 96), to which rhodamine was attached as a fluorescent dye, was applied to the coronal surface of the extracted human tooth.
# The composition for dentin adhesion was applied without a brushing process or an air-drying process and left for about 30 seconds for photopolymerization, and then confocal images were taken.
sequence,measurement,value
"KYKQKRRSYK [KH001, KYKQKRRSYK]",dentinal tubule permeability (whether KH001 reached the pulp),flowed well into the pulp cavity along the dentinal tubule

# — patent US20260053716A1, “COMPOSITION FOR DENTIN ADHESION AND COMPOSITION FOR PULP RESTORATION, EACH COMPOSITION CONTAINING CPNE7-DERIVED PEPTIDE” (HYSENSBIO CO., LTD, priority 2022, published 2026)
